{"source": "paper doi:10.1101/2023.05.15.540887", "about": "“Comparative analysis of drug-like EP300/CREBBP acetyltransferase inhibitors” (bioRxiv, 2023)", "key": {"[1]": {"test_system": "SR", "test": "NCI-60 growth inhibition (sulforhodamine B)", "assay_type": "cell-based, human", "settings": "SR (Leukemia), negative log of Molar conc., LCONC -8"}, "[2]": {"test_system": "SN12C", "test": "NCI-60 growth inhibition (sulforhodamine B)", "assay_type": "cell-based", "settings": "Homo sapiens, Renal Cancer, negative log of Molar value"}, "[3]": {"test_system": "SNB-19", "test": "NCI-60 growth inhibition (sulforhodamine B)", "assay_type": "cell-based, human", "settings": "SNB-19 (CNS Cancer), negative log of Molar conc., LCONC -8"}, "[4]": {"test_system": "MDA-MB-231/ATCC", "test": "NCI-60 growth inhibition (sulforhodamine B)", "assay_type": "cell-based", "settings": "Homo sapiens, Breast Cancer, negative log of Molar value, LCONC -8, EXPID 2301NS84, read-out: IC50 NLOGVALUE"}, "[5]": {"test_system": "PC-3", "test": "NCI-60 growth inhibition (sulforhodamine B)", "assay_type": "cell-based", "settings": "Homo sapiens, PC-3, Prostate Cancer, negative log of Molar value, LCONC -8, EXPID 2301NS84"}, "[6]": {"test_system": "HOP-62", "test": "NCI-60 growth inhibition (sulforhodamine B)", "assay_type": "cell-based, human"}, "[7]": {"test_system": "histone H3 acetylation in T-47D cells", "test": "Quantitative LC-MS analysis of histone H3 acetylation in T-47D cells", "assay_type": "cell-based, human", "settings": "24 h", "source_text": "In principle the phenotype elicited by any single small molecule can be due to either an on- or off-target effect; however, if multiple chemically distinct small molecules designed to target a single gene all elicit the same phenotype, one’s confidence in their on-target mechanism becomes greater. As such, we sought to apply our knowledge of the comparative potencies of 1-3 to test whether the simplest phenotype caused by EP300/CREBBP inhibitors – cell death – was consistent with their effects on histone acetylation and a putative on-target mechanism. Compounds 1-3 were submitted for analysis in the NCI-60 screen, which has been used since 1990 to analyze the growth inhibitor effects of small molecules across a range of transformed cell lines derived from diverse tissues of origin including colorectal, renal, ovarian, prostate, lung, breast, and central nervous system tumors.[28] […] These trends were further confirmed using an orthogonal ATP-Glo assay in MCF-7 cells (Fig. S2). Subsequently, the COMPARE algorithm was used to compare the patterns of growth inhibition elicited by 1-3 in the NCI-60 assay against the >150,000 compounds analyzed in the screen to date.[29] […] Finally, the specificity of CPI-1612 (3) was directly assessed using quantitative LC-MS analysis of histone acetylation in treated cells,[33] focusing on four abundant histone acetylation markers whose writers are well-characterized: H3K9Ac (written by KAT2A/B), H3K14Ac (KAT7), H3K18Ac (EP300/CREBBP), and H3K23Ac (KAT6A/B; Fig. 3e).[26] […] An increase in the levels of singly modified H3K23Ac peptide coincided with specific loss of H3K18Ac from K18/K23 diacetylated peptide, indicative of orthogonal regulation. Overall, the parallel trends in the biochemical and cellular potencies of EP300/CREBBP inhibitors are consistent with an on-target mechanism for 1-3 and further highlight the relatively high potency of CPI-1612 (3).\nT-47D cells were plated at 4 x 10^6 cells per plate in 10 cm dishes in 10 mL of media. After 16-24 h cells were treated with 5, 50, or 500 nM of 3. Compound 3 was dosed from stock solutions equal to 100x the final concentration in RPMI-1640. When necessary additional DMSO was added to maintain a constant concentration of 0.1%. Controls were treated with vehicle DMSO (0.1%). After 24 h, cells were washed with 5 mL ice cold 1x PBS, scraped in 5 mL of 1x PBS, transferred to a pre-chilled 15 mL tube, centrifuged (800 rcf x 5 min), and either snap frozen or immediately processed via the following protocol.^5 Pellets were washed twice and resuspended in 400 µL NIB (15 mM pH 7.5 Tris-HCl, 60 mM KCl, 15 mM NaCl, 5 mM MgCl2, 1 mM CaCl2, 250 mM sucrose, 1X protease inhibitor cocktail [Cell Signaling Technology #5871]), 1 mM DTT, and 10 mM sodium butyrate) with 0.3% IGEPAL CA-630 to lyse cells. Suspensions were transferred into tubes on ice and incubated for >5 min. Nuclei were pelleted (700 rcf, 4 °C , 5 min) and the supernatant discarded. Pelleted nuclei were subjected to two cycles of a wash with 500 µL NIB (without IGEPAL CA-630) followed by centrifugation (700 rcf, 4 °C , 5 min) in order to remove all IGEPAL CA-630. Nuclei were re-suspended in 200 µL 0.2 N H2SO4 and rotated at 4 °C for 2 h. Samples were then centrifuged (3,400 rcf, 4 °C , 5 min) and supernatants transferred into new tubes (pellets discarded). 66 µL of 100% TCA was added to each sample (final TCA concentration: 20%) and tubes were inverted once. Histones were precipitated at 4 °C for 16 h, then centrifuged (3,400 rcf, 4 °C , 5 min) and supernatants carefully discarded, with histones now visible as films on the sides and at the bottom of tubes. Histones were subjected to two cycles of washing (0.5 mL of ice-cold acetone + 1% 1M HCl, followed by 1 mL of 100% ice-cold acetone) followed by centrifugation (11,000 rcf, 4 °C , 5 min) after each step. Samples were air dried at room temperature and resuspended in 30 µL of ddH2O. […]"}, "[8]": {"test_system": "MCF10A PANK4 KO+EV cells", "test": "Sulforhodamine B cell growth assay, MCF10A PANK4 KO+EV", "assay_type": "cell-based, human"}, "[9]": {"settings": "Homo sapiens, read-out: GI50 NLOGVALUE (converted)"}}, "note": "Where “and” joins values, the source holds several entries; their conditions need not be identical. Equal values may be shown once. Read-outs that look alike come from different tables or passages of the source."}
{"smiles": "C[C@H](CN[C@@H](C(=O)Nc1ccc(-c2cnn(C)c2)cn1)c1ccccc1)c1ccc(C#N)cc1", "note": "[CPI-1612]", "values": [{"measurement": "GI50", "setting": "[1]; [9]", "result": 1860, "unit": "nM"}, {"measurement": "IC50", "setting": "[1]; Homo sapiens, read-out: IC50 NLOGVALUE (converted)", "result": 56200, "unit": "nM"}, {"measurement": "TGI NLOGVALUE", "setting": "[1]", "result": 4}, {"measurement": "GI50", "setting": "[2]; LCONC -8, EXPID 2301NS84, read-out: GI50 NLOGVALUE (converted)", "result": 224, "unit": "nM"}, {"measurement": "IC50", "setting": "[2]; LCONC -8, EXPID 2301NS84, read-out: IC50 NLOGVALUE", "result": "> 100000", "unit": "nM"}, {"measurement": "CC50", "setting": "[2]; LCONC -8, EXPID 2301NS84, read-out: LC50 NLOGVALUE", "result": "> 100000", "unit": "nM"}, {"measurement": "GI50", "setting": "[3]; [9]", "result": 95.5, "unit": "nM"}, {"measurement": "IC50", "setting": "[3]; Homo sapiens, read-out: IC50 NLOGVALUE", "result": "> 100000", "unit": "nM"}, {"measurement": "CC50", "setting": "[3]; Homo sapiens, read-out: LC50 NLOGVALUE", "result": "> 100000", "unit": "nM"}, {"measurement": "TGI NLOGVALUE", "setting": "[3]", "result": 4}, {"measurement": "IC50", "setting": "[4]", "result": "> 100000", "unit": "nM"}, {"measurement": "GI50", "setting": "[5]; read-out: GI50 NLOGVALUE", "result": "< 10", "unit": "nM"}, {"measurement": "IC50", "setting": "[5]; read-out: IC50 NLOGVALUE (converted)", "result": 447, "unit": "nM"}, {"measurement": "CC50", "setting": "[5]; read-out: LC50 NLOGVALUE", "result": "> 100000", "unit": "nM"}, {"measurement": "TGI NLOGVALUE", "setting": "[6]; HOP-62 (Non-Small Cell Lung Cancer), negative log of Molar conc., LCONC -8", "result": 4}, {"measurement": "GI50", "setting": "[6]; Homo sapiens, HOP-62, read-out: GI50 AVGDATA (converted)", "result": 1950, "unit": "nM"}, {"measurement": "GI50", "setting": "[6]; Homo sapiens, HOP-62 (Non-Small Cell Lung Cancer), negative log of Molar conc., LCONC -8, read-out: GI50 NLOGVALUE (converted)", "result": 1910, "unit": "nM"}, {"measurement": "IC50", "setting": "[6]; Homo sapiens, HOP-62 (Non-Small Cell Lung Cancer), negative log of Molar conc., LCONC -8, read-out: IC50 NLOGVALUE", "result": "> 100000", "unit": "nM"}, {"measurement": "CC50", "setting": "[6]; Homo sapiens, HOP-62 (Non-Small Cell Lung Cancer), negative log of Molar conc., LCONC -8, read-out: LC50 NLOGVALUE", "result": "> 100000", "unit": "nM"}, {"measurement": "specificity on histone H3 acetylation marks (H3K9Ac, H3K14Ac, H3K18Ac, H3K23Ac)", "setting": "[7]; T-47D cells, 5, 50 or 500 nM, LC-MS", "result": "affected the abundance of only the EP300/CREBBP-dependent peptides containing H3K18Ac"}, {"measurement": "ratio normalized to largest mean (vehicle or 500 nM), H3_9_17 K9ac (K9Ac)", "setting": "[7]; T-47D, 5 nM, Rep1-3", "result": "160.77 and 142.38"}, {"measurement": "ratio normalized to largest mean (vehicle or 500 nM), H3_18_26 K18ac (K18Ac)", "setting": "[7]; T-47D, 5 nM, Rep1-3", "result": "31.25 and 26.23 and 16.75"}, {"measurement": "ratio normalized to largest mean (vehicle or 500 nM), summed H3_9_17 K14ac peptides (K14Ac)", "setting": "[7]; T-47D, 5 nM, Rep1-3", "result": "93.75 and 92.27 and 95.59"}, {"measurement": "ratio, H3_9_17 K9ac (K9Ac)", "setting": "[7]; T-47D, 5 nM, Rep1-3", "result": "0.039 and 0.034"}, {"measurement": "ratio, H3_18_26 K18ac (K18Ac)", "setting": "[7]; T-47D, 5 nM, Rep1-3", "result": "0.0063 and 0.0053 and 0.0034"}, {"measurement": "ratio, H3_18_26 K18acK23ac (K18K23Ac)", "setting": "[7]; T-47D, 5 nM, Rep1-3", "result": "0.0043 and 0.0044 and 0.0039"}, {"measurement": "ratio, H3_18_26 K23ac (K23Ac)", "setting": "[7]; T-47D, 5 nM, Rep1-3", "result": "0.2133 and 0.2165 and 0.1842"}, {"measurement": "ratio, summed H3_9_17 K14ac peptides (K14Ac)", "setting": "[7]; T-47D, 5 nM, Rep1-3", "result": "0.181 and 0.179 and 0.185"}, {"measurement": "ratio normalized to largest mean (vehicle or 500 nM), summed H3_9_17 K14ac peptides (K14Ac)", "setting": "[7]; T-47D, 50 nM, Rep1-3", "result": "92.31 and 100.80 and 86.46"}, {"measurement": "ratio, H3_18_26 K23ac (K23Ac)", "setting": "[7]; T-47D, 50 nM, Rep1-3", "result": "0.2929 and 0.2070 and 0.3135"}, {"measurement": "ratio, summed H3_9_17 K14ac peptides (K14Ac)", "setting": "[7]; T-47D, 50 nM, Rep1-3", "result": "0.167 and 0.179 and 0.195"}, {"measurement": "ratio normalized to largest mean (vehicle or 500 nM), H3_18_26 K18ac (K18Ac)", "setting": "[7]; T-47D, 500 nM, Rep1-3", "result": "2.61 and 1.89 and 1.57"}, {"measurement": "ratio normalized to largest mean (vehicle or 500 nM), summed H3_9_17 K14ac peptides (K14Ac)", "setting": "[7]; T-47D, 500 nM, Rep1-3", "result": "103.05 and 88.46 and 106.21"}, {"measurement": "ratio, H3_18_26 K18ac (K18Ac)", "setting": "[7]; T-47D, 500 nM, Rep1-3", "result": "0.0005 and 0.000379 and 0.0003"}, {"measurement": "ratio, H3_18_26 K23ac (K23Ac)", "setting": "[7]; T-47D, 500 nM, Rep1-3", "result": "0.2977 and 0.3570 and 0.3048"}, {"measurement": "ratio, summed H3_9_17 K14ac peptides (K14Ac)", "setting": "[7]; T-47D, 500 nM, Rep1-3", "result": "0.199 and 0.171 and 0.206"}, {"measurement": "IC50", "setting": "[8]; Homo sapiens, MCF-10A KO+EV, 72 h", "result": 84, "unit": "nM"}, {"measurement": "growth inhibition activity at 1 μM", "setting": "[8]; PANK4 KO+EV cells, 1 μM", "result": "remains active"}]}
